Measured values published in publication PMC5431190, “Investigation of cationicity and structure of pseudin-2 analogues for enhanced bacterial selectivity and anti-inflammatory activity” (Scientific Reports, 2017).
Converted amounts (≈) assume the structure as drawn. Like-named read-outs stand apart in the source and are kept apart here. Residues, ends and D or L forms follow the SMILES beside them.

Experiments:
[1] = tested on: Acinetobacter baumannii CCARM 12035 (MDRAB 12035); assay type: cell-based; conditions: multidrug-resistant strain; 1% peptone media, 16 h at 37 °C
Description: (§1) Four Gram-negative bacteria species (Escherichia coli KCTC 1682, Acinetobacter baumannii KCTC 2508, Pseudomonas aeruginosa KCTC 1637 and Salmonella typhimurium KCTC 1926) and three Gram-positive bacteria species (Staphylococcus aureus KCTC 1621, Bacillus subtilis KCTC 3028 and Staphylococcus epidermidis KCTC 1917) were procured from the Korean Collection for Type Cultures (KCTC). Multi-drug-resistant Gram-negative bacteria (Salmonella typhimurium CCARM 8003 and 8007, Escherichia coli CCARM 1229 and 1238, Pseudomonas aeruginosa CCARM 2002 and 2095 and Acinetobacter baumannii CCARM 12035 and 12036) were obtained from the Culture Collection of Antibiotic-Resistant Microbes (CCARM). To determine MICs, bacteria were cultured in Luria-Bertani (LB) medium for overnight at 37 °C. An aliquot of the culture was incubated in 1% peptone media at 37 °C until mid-log phase. 100 μl of serial 2-fold diluted peptides were treated in 96 well plates and added to 100 μl of 2 × 10^6 CFU/ml bacterial suspensions in 1% peptone media for 16 h at 37 °C.

[2] = tested on: Acinetobacter baumannii CCARM 12036 (MDRAB 12036); assay type: cell-based; conditions: multidrug-resistant strain; 1% peptone media, 16 h at 37 °C
Description: as §1

[3] = tested on: Acinetobacter baumannii KCTC 2508; assay type: cell-based
Description: as §1

[4] = tested on: Bacillus subtilis KCTC 3028; assay type: cell-based
Description: as §1

[5] = tested on: Escherichia coli CCARM 1229 (MDREC 1229); assay type: cell-based; conditions: multidrug-resistant strain; 1% peptone media, 16 h at 37 °C
Description: as §1

[6] = tested on: Escherichia coli CCARM 1238 (MDREC 1238); assay type: cell-based; conditions: multidrug-resistant strain; 1% peptone media, 16 h at 37 °C
Description: as §1

[7] = tested on: Escherichia coli KCTC 1682; assay type: cell-based
Description: as §1

[8] = tested on: Gram-negative bacteria (E. coli, A. baumannii, P. aeruginosa, S. typhimurium); assay type: cell-based
Description: as §1

[9] = tested on: Gram-positive bacteria (S. aureus, B. subtilis, S. epidermidis); assay type: cell-based
Description: as §1

[10] = tested on: Pseudomonas aeruginosa CCARM 2002 (MDRPA 2002); assay type: cell-based; conditions: multidrug-resistant strain; 1% peptone media, 16 h at 37 °C
Description: as §1

[11] = tested on: Pseudomonas aeruginosa CCARM 2095 (MDRPA 2095); assay type: cell-based; conditions: multidrug-resistant strain; 1% peptone media, 16 h at 37 °C
Description: as §1

[12] = tested on: Pseudomonas aeruginosa KCTC 1637; assay type: cell-based
Description: as §1

[13] = tested on: Salmonella typhimurium CCARM 8003 (MDRST 8003); assay type: cell-based; conditions: multidrug-resistant strain; 1% peptone media, 16 h at 37 °C
Description: as §1

[14] = tested on: Salmonella typhimurium CCARM 8007 (MDRST 8007); assay type: cell-based; conditions: multidrug-resistant strain; 1% peptone media, 16 h at 37 °C
Description: as §1

[15] = tested on: Salmonella typhimurium KCTC 1926; assay type: cell-based
Description: as §1

[16] = tested on: Staphylococcus aureus KCTC 1621; assay type: cell-based
Description: as §1

[17] = tested on: Staphylococcus epidermidis KCTC 1917; assay type: cell-based
Description: as §1

[18] = tested on: human red blood cells (hRBCs); assay: Haemolytic activity; assay type: cell-based
Protocol: Peptide-induced lysis of human red blood cells (hRBCs) was determined as follows. Fresh hRBCs were washed 2–3 times with phosphate-buffered saline (PBS) by centrifugation for 5 min at 2500 rpm at 4 °C. Peptides in PBS were incubated with 4% (v/v) hRBCs for 1 h at 37 °C. Samples were then centrifuged for 5 min at 1000 × g. The absorbance of the supernatant at 405 nm was used as a measure of haemolysis. As a positive control, 100% haemolysis was obtained by treating hRBCs with 0.1% Triton X-100.

[19] = tested on: S. aureus 3089(R) (MRSA 3089); assay type: cell-based, Staphylococcus aureus; conditions: multidrug-resistant strain; 1% peptone media, 16 h at 37 °C
[20] = tested on: S. aureus 3108(R) (MRSA 3108); assay type: cell-based, Staphylococcus aureus; conditions: multidrug-resistant strain; 1% peptone media, 16 h at 37 °C
[21] = tested on: S. aureus 3126(R) (MRSA 3126); assay type: cell-based, Staphylococcus aureus; conditions: multidrug-resistant strain; 1% peptone media, 16 h at 37 °C
[22] = tested on: mouse macrophage RAW264.7 cells; conditions: 50 μM peptide, MTT, 18 h at 37 °C
Protocol: (§2) The MTT assay was used to determine the cytotoxicity of each peptide against mouse macrophage RAW264.7 cells and mouse bone marrow-derived dendritic cells. Bone marrow was isolated from 6-week-old female C57BL mice. Red blood cell lysis buffer (Sigma) was used to lyse red blood cells in the bone marrow. Then, the bone marrow was cultured in RPMI 1640 containing 10% foetal bovine serum and 20 ng/ml GM-CSF. After three days, floating cells were gently removed, and fresh medium was added. Dendritic cells were extracted three days later. Cells were cultured on 96-well plates at a density of 1 × 10^4 cells/well in RPMI 1640 containing 10% foetal bovine serum. Different concentrations of peptides were added and incubated for 18 h at 37 °C. Subsequently, 20 μl of MTT (5 mg/ml) was added to each well and then incubated for 4 h at 37 °C. An ELISA reader was used to measure the absorbance at 570 nm. A 100% cytotoxic control was generated by treatment with 0.1% Triton X-100.

[23] = tested on: mouse bone marrow-derived dendritic cells; conditions: 50 μM peptide, MTT, 18 h at 37 °C
Protocol: as §2

SMILES	MIC, MDRAB 12035 [1] [µM]	MIC, MDRAB 12036 [2] [µM]	MIC, A. baumannii ([3]; KCTC 2508, 16 h) [µM]	MIC, B. subtilis ([4]; KCTC 3028, 16 h) [µM]	MIC, MDREC 1229 [5] [µM]	MIC, MDREC 1238 [6] [µM]	MIC, E. coli ([7]; KCTC 1682, 16 h) [µM]	Average MIC, Gram-negative ([8]; 16 h) [µM]	Average MIC, Gram-positive ([9]; 16 h) [µM]	MIC, MDRPA 2002 [10] [µM]	MIC, MDRPA 2095 [11] [µM]	MIC, P. aeruginosa ([12]; KCTC 1637, 16 h) [µM]	MIC, MDRST 8003 [13] [µM]	MIC, MDRST 8007 [14] [µM]	MIC, S. typhimurium ([15]; KCTC 1926, 16 h) [µM]	MIC, S. aureus ([16]; KCTC 1621, 16 h) [µM]	MIC, S. epidermidis ([17]; KCTC 1917, 16 h) [µM]	MIC, MRSA 3089 [19] [µM]	MIC, MRSA 3108 [20] [µM]	MIC, MRSA 3126 [21] [µM]	further results
CC[C@H](C)[C@H](NC(=O)CNC(=O)[C@H](CCC(N)=O)NC(=O)[C@H](Cc1ccccc1)NC(=O)[C@@H](NC(=O)[C@H](CCCCN)NC(=O)[C@H](CCCCN)NC(=O)[C@H](CC(C)C)NC(=O)[C@H](C)NC(=O)[C@H](CC(N)=O)NC(=O)[C@H](CC(C)C)NC(=O)CN)C(C)C)C(=O)N[C@@H](Cc1c[nH]cn1)C(=O)N[C@@H](CCC(=O)O)C(=O)N[C@@H](C)C(=O)N[C@H](C(=O)N[C@@H](CCCCN)C(=O)N[C@@H](CCCCN)C(=O)N[C@H](C(=O)N[C@@H](CC(N)=O)C(=O)N[C@@H](CC(N)=O)C(=O)N[C@@H](Cc1c[nH]cn1)C(=O)N[C@H](C(=O)N[C@@H](CCC(N)=O)C(=O)O)C(C)C)[C@@H](C)CC)[C@@H](C)CC [Ps-K18] (H-GLNALKKVFQGIHEAIKKINNHVQ-OH)	4 (≈ 10.8 µg/mL)	4 (≈ 10.8 µg/mL)	2 (≈ 5.4 µg/mL)	8 (≈ 21.6 µg/mL)	4 (≈ 10.8 µg/mL)	2 (≈ 5.4 µg/mL)	2 (≈ 5.4 µg/mL)	2.5	10.67	2 (≈ 5.4 µg/mL)	2 (≈ 5.4 µg/mL)	2 (≈ 5.4 µg/mL)	4 (≈ 10.8 µg/mL)	4 (≈ 10.8 µg/mL)	4 (≈ 10.8 µg/mL)	16 (≈ 43.2 µg/mL)	8 (≈ 21.6 µg/mL)	16 (≈ 43.2 µg/mL)	32 (≈ 86.4 µg/mL)	16 (≈ 43.2 µg/mL)	MHC (minimal peptide concentration that produces haemolysis) ([18]; red cells of human, 1 h): 100 µM; haemolysis at 100 μM ([18]; red cells of human, 1 h): 0.5%
CC[C@H](C)[C@H](NC(=O)[C@H](C)NC(=O)[C@H](CCC(=O)O)NC(=O)[C@H](Cc1c[nH]cn1)NC(=O)[C@@H](NC(=O)[C@@H]1CCCN1C(=O)[C@H](CCC(N)=O)NC(=O)[C@H](Cc1ccccc1)NC(=O)[C@@H](NC(=O)[C@H](CCCCN)NC(=O)[C@H](CCCCN)NC(=O)[C@H](CC(C)C)NC(=O)[C@H](C)NC(=O)[C@H](CC(N)=O)NC(=O)[C@H](CC(C)C)NC(=O)CN)C(C)C)[C@@H](C)CC)C(=O)N[C@@H](CCCCN)C(=O)N[C@@H](CCCCN)C(=O)N[C@H](C(=O)N[C@@H](CC(N)=O)C(=O)N[C@@H](CC(N)=O)C(=O)N[C@@H](Cc1c[nH]cn1)C(=O)N[C@H](C(=O)N[C@@H](CCC(N)=O)C(=O)O)C(C)C)[C@@H](C)CC [Ps-K18-P] (H-GLNALKKVFQPIHEAIKKINNHVQ-OH)	16 (≈ 43.8 µg/mL)	16 (≈ 43.8 µg/mL)	–	–	32 (≈ 87.7 µg/mL)	16 (≈ 43.8 µg/mL)	–	–	–	16 (≈ 43.8 µg/mL)	16 (≈ 43.8 µg/mL)	–	16 (≈ 43.8 µg/mL)	16 (≈ 43.8 µg/mL)	–	–	–	64 (≈ 175 µg/mL)	64 (≈ 175 µg/mL)	>64	MIC, A. baumannii ([3]; standard strain KCTC 2508, 1% peptone media, 16 h at 37 °C, three independent experiments in triplicate, SD 14.0%): 16 µM (≈ 43.8 µg/mL); MIC, B. subtilis ([4]; standard strain KCTC 3028, 1% peptone media, 16 h at 37 °C, three independent experiments in triplicate, SD 14.0%): 64 µM (≈ 175 µg/mL); MIC, E. coli ([7]; standard strain KCTC 1682, 2-fold dilutions, 1% peptone media, 2 × 10^6 CFU/ml suspension, 16 h at 37 °C, three independent experiments in triplicate, SD 14.0%): 16 µM (≈ 43.8 µg/mL); Average MIC, Gram-negative ([8]; average over the four Gram-negative standard strains): 14 µM; Average MIC, Gram-positive ([9]; average over the three Gram-positive standard strains): 64 µM; MIC, P. aeruginosa ([12]; standard strain KCTC 1637, 1% peptone media, 16 h at 37 °C, three independent experiments in triplicate, SD 14.0%): 8 µM (≈ 21.9 µg/mL); MIC, S. typhimurium ([15]; standard strain KCTC 1926, 1% peptone media, 16 h at 37 °C, three independent experiments in triplicate, SD 14.0%): 16 µM (≈ 43.8 µg/mL); MIC, S. aureus ([16]; standard strain KCTC 1621, 1% peptone media, 16 h at 37 °C, three independent experiments in triplicate, SD 14.0%): 64 µM (≈ 175 µg/mL); MIC, S. epidermidis ([17]; standard strain KCTC 1917, 1% peptone media, 16 h at 37 °C, three independent experiments in triplicate, SD 14.0%): 64 µM (≈ 175 µg/mL); haemolysis at 400 μM ([18]; 400 μM peptide, 4% hRBCs, PBS, 1 h at 37 °C, 100% = 0.1% Triton X-100): 0.1%; MHC (minimal peptide concentration that produces haemolysis) ([18]; 4% (v/v) hRBCs in PBS, 1 h at 37 °C, absorbance 405 nm, printed in both Gram-negative and Gram-positive sections): 400 µM
CC[C@H](C)[C@H](NC(=O)CNC(=O)[C@H](CCC(N)=O)NC(=O)[C@H](Cc1ccccc1)NC(=O)[C@@H](NC(=O)[C@H](CCCCN)NC(=O)[C@H](CCCCN)NC(=O)[C@H](CC(C)C)NC(=O)[C@H](C)NC(=O)[C@H](CC(N)=O)NC(=O)[C@H](CC(C)C)NC(=O)CN)C(C)C)C(=O)N[C@@H](Cc1c[nH]cn1)C(=O)N[C@@H](CCC(=O)O)C(=O)N[C@@H](C)C(=O)N[C@H](C(=O)N[C@@H](CCCCN)C(=O)N[C@@H](CC(C)C)C(=O)N[C@H](C(=O)N[C@@H](CC(N)=O)C(=O)N[C@@H](CC(N)=O)C(=O)N[C@@H](Cc1c[nH]cn1)C(=O)N[C@H](C(=O)N[C@@H](CCC(N)=O)C(=O)O)C(C)C)[C@@H](C)CC)[C@@H](C)CC [Ps, Pseudin-2] (H-GLNALKKVFQGIHEAIKLINNHVQ-OH)	1 (≈ 2.69 µg/mL)	2 (≈ 5.37 µg/mL)	1 (≈ 2.69 µg/mL)	4 (≈ 10.7 µg/mL)	2 (≈ 5.37 µg/mL)	1 (≈ 2.69 µg/mL)	1 (≈ 2.69 µg/mL)	1.5	4	2 (≈ 5.37 µg/mL)	2 (≈ 5.37 µg/mL)	2 (≈ 5.37 µg/mL)	4 (≈ 10.7 µg/mL)	2 (≈ 5.37 µg/mL)	2 (≈ 5.37 µg/mL)	4 (≈ 10.7 µg/mL)	4 (≈ 10.7 µg/mL)	4 (≈ 10.7 µg/mL)	4 (≈ 10.7 µg/mL)	4 (≈ 10.7 µg/mL)	MHC (minimal peptide concentration that produces haemolysis) ([18]; red cells of human, 1 h): 25 µM; haemolysis at 100 μM ([18]; red cells of human, 1 h): approximately 23%; survival of RAW264.7 cells [22]: 56%; survival of dendritic cells [23]: 44%
